Where no end group is shown, it is not given here.
Experiments:
splenocytes = assay: ELISPOT assay for T cell activation (IFN-γ, IL-4) in splenocytes of administered mice; type: cell-based, mouse; settings: splenocytes 7 weeks after first administration, stimulated with 10 μg/mL AJP001 alone or 10 μg/mL AJP001 conjugated peptide
Method: In addition, ELISPOT assay was performed to evaluate T cell activation. AJP001 conjugated peptide (SEQ ID NO: 2) or physiological saline was administered three times at two-week intervals to BALB/c mice (female, 6-week-old, N=3-4), and the spleen was collected 7 weeks after the first administration. The collected spleen was triturated using a syringe barrel and a cell strainer. This was washed with and suspended in HBSS (−), erythrocytes were removed using ACK Buffer (Thermo fisher scientific), and splenocytes were isolated. Using Mouse IFN-γ ELISpot assay kit and Mouse IL-4 ELISpot assay kit (R&D systems), the cells were prepared to 2.5×10^6 cells/mL with 10% FBS/1% penicillin/streptomycin/4 ng/mL rmIL-2-containing RPMI1640 medium (culture medium), and seeded at 100 μL/well on the 96-well plate of which each capture antibody was immobilized. Splenocytes were stimulated by adding (1) medium alone, (2) 10 μg/mL T cell antigen AJP001 (SEQ ID NO: 38) alone, (3) 10 μg/mL AJP001 conjugated peptide (SEQ ID NO: 2), or (4) 100 ng/mL PMA/ionomycin (PMA/IM, Sigma) to each well. Stimulation was performed for 2 days in a […]. Then, a detection antibody was added and, after washing, a colorimetric reaction was performed. The stained cells were measured with a microscope. The number of IFN-γ and IL-4 positive cells was calculated as the number of cells per 10^6 cell number (SFC/10^6 cells). In FIG. 2, “*” means significant (P<0.05).
In addition, AJP001 conjugated peptide (SEQ ID NO: 6) or physiological saline was administered three times at two-week intervals to BALB/c mouse (female, 6-week-old, N=3-4), and the spleen was collected 7 weeks after the first administration. The collected spleen was subjected to ELISPOT assay using Mouse IFN-γ ELISpot assay kit and Mouse IL-4 ELISpot assay kit (R&D systems).

epitope peptide = assay: Antibody titer (GMT) of serum of mice administered AJP001 conjugated peptide, ELISA; type: in vivo, mouse; settings: BALB/c mice, no adjuvant; for antibody titer (GMT) over time: 1 mg/body intradermal 3 times at two-week intervals, blood every 2 weeks until 8 weeks
Method: AJP001 conjugated peptide having one of the B cell epitope sequences of SEQ ID NOs: 1-5 was dissolved in physiological saline and intradermally administered twice to BALB/c mice (female, 6-week-old, N=5-6) at 0.5 mg/body at 2-week intervals. Blood was collected before administration and 5 weeks after the initial administration, and the antibody titer against each AJP001 conjugated peptide and the binding ability to recombinant mouse IL-23 protein (rmIL-23) were measured by the ELISA method. Specifically, a 96-well plate immobilized with an epitope peptide dissolved at 10 μg/mL in carbonate buffer was blocked with 5% skim milk/PBS, and then serum serially diluted with 5% skim milk/PBS was added, and the mixture was left standing at 4° C. overnight. After washing the wells with PBS-T, HRP-labeled anti-mouse IgG antibody (GE Healthcare) diluted with 5% skim milk/PBS was added and the mixture was shaken at room temperature for 3 hr. After washing the wells with PBS-T, TMB solution (SIGMA) was added, the wells were allowed to stand for 30 min in the dark, the reaction was stopped by adding 0.5M H2SO4, and the absorbance at 450 nm was measured using a plate reader. The serum dilution rate that gave 1/2 (OD=1.75) of the maximum absorbance was defined as the antibody titer, and the geometric mean titer: GMT was calculated from the individual values. Binding to IL-23 protein was measured by the ELISA method in the same manner as the antibody titer, using rmIL-23 (Antibodies-online GmbH) as the solid-phased antigen and goat serum for blocking.
AJP001 conjugated peptide (SEQ ID NO: 2) was dissolved in physiological saline and intradermally administered to BALB/c mice (female, 6-week-old, N=6) at 1 mg/body 3 times at two-week intervals, and blood was collected every 2 weeks until 8 weeks. The antibody titer (GMT) of all the collected sera and the binding ability to rmIL-23 of the serum at the time point of 6 weeks were measured by the ELISA method (same method as in Example 1). The antibody titer and the binding of the induced antibody to rmIL-23 at each time point are shown in FIGS. 2 (a) and (b), respectively.
AJP001 conjugated peptide (SEQ ID NOs: 6-37) was dissolved in physiological saline, mixed with an equal amount of 2% Alhydrogel (invivogen), and this was intradermally administered to BALB/c mice (female, 6-week-old, N=5-6) at 0.5 mg/body 3 times at two-week intervals. Blood was collected before administration and at the time point of 6 weeks after initial administration, and the antibody titer (GMT) to each epitope sequence and binding ability to recombinant human IL-23 protein (rhIL-23) (Peprotech) were measured by the ELISA method (same method as in Example 1). The binding to rhIL-23 was evaluated by a binding ratio to normal serum by calculating the ratio of the absorbance of a well added with normal mouse serum to the absorbance of a well added with antiserum derived from a mouse administered with each AJP001 conjugated peptide (SEQ ID NOs: 6-37). In addition, the neutralization activity of mouse antiserum was evaluated using an action on IL-17 production in rhIL-23 stimulated mouse splenocyte as an index. The spleen of normal BALB/c mouse (female, 5-week-old, N=3) was triturated using a syringe barrel and a cell strainer and washed with and suspended in HBSS (−). Erythrocytes were then removed using ACK Buffer (Thermo fisher scientific), and splenocytes were isolated. The splenocytes were prepared to 2.5×10^6 cells/mL with 10% FBS/1% penicillin/streptomycin/4 ng/mL rmIL-2-containing RPMI1640 medium (culture medium), and seeded in a 96 well plate at 100 μl/well. The antiserum (final concentration 15-fold) of the mice administered with each AJP001 conjugated peptide and rhIL-23 (final concentration 10 ng/ml) were added to the culture medium, reacted at 37° C. for 2 hr, added at 100 μL/well to a 96-well plate seeded with splenocytes, and cultured for 3 days in a 37° C./5% CO2 incubator. […]

rhIL-23 = assay: Binding of monkey antiserum to rhIL-23, ELISA; design: species or system human; settings: monkey antiserum 6 weeks after the initial administration
Method: AJP001 conjugated peptide (SEQ ID NO: 6) was dissolved in physiological saline and subcutaneously administered to Macaca fascicularis (female, […], N=4) at 5 mg/body 3 times at two-week intervals. Blood was collected every two weeks from the first day of administration until week 16, and the antibody titer (GMT) and binding to IL-23 of the serum at each time point were measured by the ELISA method (same method as in Example 1; the secondary antibody used was Anti-Monkey IgG (Abcam)). In FIG. 7, “*” means P<0.05.

Substance	number of IFN-γ positive cells (splenocytes)	number of IL-4 positive cells (splenocytes)	antibody titer (epitope peptide; 0.5 mg/body intradermal twice at 2-week intervals, 5 weeks after initial administration)	antibody titer (GMT) over time (epitope peptide)	binding ability to rhIL-23 (rhIL-23)
SEQ ID NO 2: AJP001-Ahx-B cell epitope peptide conjugate; epitope SSSQQWQR (mouse 152-159) (not fully specified (N-terminus); listed as Mus musculus)	increase	increase	significant increase	increased from the 2nd week and persisted until the 8th week	–
SEQ ID NO 6: AJP001-Ahx-B cell epitope peptide conjugate; epitope SPSQPWQR (human 151-158) (not fully specified (N-terminus); listed as Homo sapiens)	increase	increase	–	increased from the 2nd week and persisted until the 8th week	showed binding ability
